In assay [1] the test system is H3 receptor. The conditions noted are these: cited from earlier work.
Assay [2] concerns H3. To be noted: cited from earlier work.
The conditions of assay [3]: dose-dependent; species not printed in this sentence (preceding sentence: cat); cited from earlier work.
For assay [4], the target named is T1, Histamine H3 Receptor (Rattus norvegicus, UniProt Q9QYN8).
T1 construct: from tissue; host or cells: rat cerebral cortex membranes
The assay is described as follows: In Vitro Histamine H3 Receptor Binding Analysis ([3H]-Nα-methylhistamine, rat cortical membranes). Here is the method:
Histamine H3 receptor affinity was determined in rat cortical membranes using the H3 selective agonist ligand, [^3 H]-N^α -methylhistamine (78.9 Ci/mmole, DuPont NEN Research Products, Boston, Mass.) according to the method of West et al., (1990) Mol. Pharmacol. 38: 610-613 with modifications. Briefly, animals were sacrificed by decapitation and the cerebral cortex was rapidly removed. Rat cortices were mechanically homogenized with an Omni 1000 motor driven homogenizer in 10 volumes (wt/vol) of Krebs-Ringers Hepes buffer (pH 7.4) containing the following protease inhibitors; EDTA (10 mmol), PMSF (0.1 mM), chymostatin (0.2 mg/50 mL) and leupeptin (0.2 mg/50 mL). The homogenate was centrifuged in a Sorvall at ~40,000 x g for 30 min. The pellet was resuspended by mechanical homogenization in 25 mL water and lysed on ice for 30 min. The homogenate was recentrifuged and the membrane lysis was repeated. The membranes were recentrifuged and the final pellet was resuspended in 14 volumes of water to give approximately 200 μg protein/100 μl final concentration. The suspension was stored at -80° C. prior to use. Protein concentrations were determined by Coomassie Plus Protein Assay (Pierce, Rockford, Ill.).
Nonspecific binding (NSB) was accounted for by the inclusion of thioperamide (10 μM). Samples were incubated for 40 minutes at 25° C. The samples were filtered through glass fiber strips, pre-washed with 0.3% polyethyleneimine, using a Brandell cell harvester. The filters were rapidly washed three times with 4 ml of 25 mM Tris buffer containing 145 mM NaCl (pH 7.4, 4° C.). Filters were transferred to polyethylene minivials and counted in 3.5 ml of scintillation fluid (Ecolume, ICN Biomedicals, Inc.). Using this procedure, the non-specific binding was less than 10% of the total binding and the binding to the glass fiber filters was negligible. Saturation and competition experiments were analyzed with the ReceptorFit saturation and competition curve fitting programs (Lundon Software, Inc., Cleveland, Ohio).

The conditions of assay [5]: intraventricular; rabbits; cited from earlier work.
The conditions of assay [6]: intraventricular; saline and pentobarbital-treated rats; cited from earlier work.
The mark [7] stands for this setting: rat cortical membranes, 0.8-1.2 nM [3H]-Nα-methylhistamine, 40 minutes at 25° C., pH 7.4, read-out: H3 Receptor Ki.
Where [8] appears, read: read-out: H3 Receptor Ki, rat cortical membranes, 0.8-1.2 nM [3H]-Nα-methylhistamine, 40 minutes at 25° C., pH 7.4.

Counter-ions that a name gives are not always drawn. Like-named read-outs stand apart in the source and are kept apart here.

The term Ki denotes the dissociation constant of the complex between target and ligand, obtained from inhibition or displacement.

T1 sequence (Q9QYN8 whole entry): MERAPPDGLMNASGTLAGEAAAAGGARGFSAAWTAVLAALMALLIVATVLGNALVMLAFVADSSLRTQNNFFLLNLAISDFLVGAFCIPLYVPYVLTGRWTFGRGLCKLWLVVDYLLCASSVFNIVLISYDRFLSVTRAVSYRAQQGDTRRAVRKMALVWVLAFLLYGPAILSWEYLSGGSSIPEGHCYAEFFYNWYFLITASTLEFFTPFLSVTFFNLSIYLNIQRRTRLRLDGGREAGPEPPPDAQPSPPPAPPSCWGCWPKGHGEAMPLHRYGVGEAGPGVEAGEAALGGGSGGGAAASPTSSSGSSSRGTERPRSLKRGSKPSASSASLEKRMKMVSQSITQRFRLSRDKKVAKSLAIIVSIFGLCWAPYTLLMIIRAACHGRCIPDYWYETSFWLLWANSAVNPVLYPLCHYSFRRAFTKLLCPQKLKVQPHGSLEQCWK

On to `COc1ccc(CC(=NO)C(=O)NCCc2c[nH]cn2)cc1Br`, for which the “activity in an H3 receptor assay” value in assay [1] is recorded as “active in an H3 receptor assay”. The “H3 antagonism on guinea pig ileum” value in assay [2] was “H3 antagonist on guinea pig ileum”. As to `S=C(NC1CCCCC1)N1CCC(c2cnc[nH]2)CC1` [thioperamide], the wakefulness entry in assay [3] was “enhanced wakefulness in a dose-dependent fashion”. Regarding `O=C(NCC12CC3CC(CC(C3)C1)C2)[C@@H]1C[C@H]1c1c[nH]cn1` (relative stereo) [Example 8, (±)-trans-N-(adamantanylmethyl) (2-imidazol-4-ylcyclopropyl)formamide], the Ki in assay [4] (setting [7]) was 55 ± 6 nM. The same measure, in the same setting: with `CC(C)(C)CCC#C[C@@H]1C[C@H]1c1c[nH]cn1` [Example 39, (1R,2R)-4-(2-(5,5-Dimethylhex-1-ynyl)cyclopropyl)imidazole] the figure was 0.15 ± 0.04 nM. Same read-out and setting: the figure for `O=C(N[C@@H]1C[C@H]1c1cnc[nH]1)OCCCC1CCCCC1` (relative stereo) [Example 48, (±)-trans-(3-Cyclohexylpropoxy)-N-(2-imidazol-4-ylcyclopropyl) formamide] is 55 ± 11 nM; for `c1nc([C@@H]2C[C@H]2COCCCC2CCCCC2)c[nH]1` (racemic) [Example 18, (±)-trans-(3-Cyclohexylpropoxy)(2-imidazol-4-ylcyclopropyl)methane] it is 240 ± 6 nM. In assay [4], `C(#C[C@@H]1C[C@H]1c1cnc[nH]1)CCCCc1ccccc1` (relative stereo) [Example 41, (±)-4-(2-(6-Phenylhex-1-ynyl)cyclopropyl)imidazole] returned a Ki of 16 ± 0.6 nM. On the same count and under the same terms, with `O=C(N[C@@H]1C[C@H]1c1cnc[nH]1)OCc1ccccc1Br` (relative stereo) [Example 50, (±)-trans-(2-Bromophenyl)methoxy)-N-(2-imidazol-4-ylcyclopropyl) formamide] the figure was 8 ± 0.43 nM.

As to `O=C(N[C@@H]1C[C@H]1c1cnc[nH]1)OCCCc1ccccc1` (relative stereo) [Example 47, (±)-trans-N-(2-imidazol-4-ylcyclopropyl)(3-phenylpropoxy)formamide], the Ki in assay [4] (setting [7]) was determined as 41 ± 3.4 nM. Take `NCCc1c[nH]cn1` [histamine]: in assay [5], the “arousal EEG pattern” value is “induces the appearances of an arousal EEG pattern”. The “spontaneous locomotor activity, grooming and exploratory behavior” value in assay [6] was “increased spontaneous locomotor activity, grooming and exploratory behavior”.

For `C(=C/[C@@H]1C[C@H]1c1c[nH]cn1)/CCC1CCCCC1` [Example 23, (1R, 2R)-trans-4-(2-(4-Cyclohexylbut-cis-1-enyl)cyclopropyl)imidazole], in assay [4], the Ki was 6.2 ± 0.8 nM. `O=C(NCCC1CCCCC1)C1CC1c1c[nH]cn1` [Example 28, (1R, 2R)-trans-N-(2-Cyclohexylethyl)(2-imidazol-4-ylcyclopropyl)formamide]: the Ki in assay [4] (setting [7]) was 46 ± 13 nM. Still for that read-out and setting: with `C[C@H](NC(=O)[C@@H]1C[C@H]1c1cnc[nH]1)C1CCCCC1` (mixture of isomers) [Example 7, N-[(S)-1-cyclohexylethyl]-3-(1H-imidazol-4-yl)- trans-(2R,3R)-cyclopropanamide and N-[(S)-1-cyclohexylethyl]-3-(1H-imidazol-4-yl)-trans-(2S,3S)-cyclopropanamide hydrochloride] the figure was 146 ± 13 nM; with `O=C(NCCc1c[nH]cn1)[C@@H]1C[C@H]1c1c[nH]cn1` (relative stereo) [Example 34, (±)-trans-(2-imidazol-4-ylcyclopropyl)-N-(2-imidazol-4-ylethyl) formamide], 227 ± 26 nM. Turning to `O=C(N[C@@H]1C[C@H]1c1c[nH]cn1)[C@@H]1CC2CCCCC2N1` (stereo partly drawn) [Example 14, (2R, 3R)-trans-(7-Azabicyclo[4.3.0]non-(S)-8-yl)-N-(2-imidazol-4-ylcyclopropyl)formamide], in assay [4], the Ki was determined as 8.5 ± 0.7 nM. Regarding `N[C@H](/C=C\[C@@H]1C[C@H]1c1c[nH]cn1)CC1CCCCC1` [Example 21, (1R,2R)-trans-1-Cyclohexyl-4-(2-imidazol-4-ylcyclopropyl)but-cis-3-en-2(S)-ylamine], the Ki in assay [4] (setting [8]) was 97.7 ± 28 nM. Regarding `OC(CCCC1CCCCC1)[C@@H]1C[C@H]1c1c[nH]cn1` (mixture of isomers) [Example 19, (±)-trans4-Cyclohexyl-1-(2-imidazol-4-ylcyclopropyl)butan-1-ol], in assay [4] (setting [7]), the Ki was found to be 160 ± 9 nM. For the molecule `CC(C)(C)CCC#C[C@H]1C[C@@H]1c1cnc[nH]1` [Example 52, (1S,2S)-trans-4-(2-(5,5-Dimethylhex-1-ynyl)cyclopropyl)imidazole], in assay [4] (setting [7]), the inhibitory constant (Ki) turned out to be 5.3 ± 0.5 nM.

For `O=C(N[C@@H]1C[C@H]1c1cnc[nH]1)OCCC1CCCC1` (relative stereo) [Example 49, (±)-trans-(2-Cyclopentylethoxy)-N-(2-imidazol-4-ylcyclopropyl) formamide], affinity in assay [4] was put at a Ki of 13 ± 1.5 nM. Regarding `O=C(NCC1CCCCC1)[C@H]1C[C@@H]1c1c[nH]cn1` [Example 2a], the Ki in assay [4] (setting [8]) worked out at 23 ± 1 nM. For `O=C(NCC1CC1)[C@@H]1C[C@H]1c1c[nH]cn1` (relative stereo) [Example 32, (±)-trans-N-(Cyclopropylmethyl)(2-imidazol-4-ylcyclopropyl)formamide], the Ki in assay [4] (setting [7]) was 876 ± 158 nM.

The record behind these values is US6008240A, “2-(1H-4(5)-imidazoyl) cyclopropyl derivatives” (Gliatech, Inc., priority 1997, dated 1999).
